The values below come from publication PMC6058720, “Dual-ligand modified liposomes provide effective local targeted delivery of lung-cancer drug by antibody and tumor lineage-homing cell-penetrating peptide” (Drug Delivery, 2018).

Series [1] can be described thus: In vitro drug release study (dialysis, PBS pH 7.4). Type of series: physicochemical. To be noted: PBS pH 7.4, 37 °C, over 96 h, dialysis under sink conditions. The protocol:
Briefly, 1 mL of dl-TPL-lip, CA IX-TPL-lip, CPP33-TPL-lip, TPL-lip, and free TPL solution (0.05 mg/mL) was placed into dialysis tubes with a molecular cut-off of MWCO 12–14 kDa and dialyzed in 10 mL of PBS (pH 7.4) at 37 °C. At predetermined time intervals, 100 μL of release medium was taken out and replaced with equal volume of fresh medium. The concentration of TPL in release medium was then determined by UPLC.

The test system of series [2] is orthotopic lung tumor (A549-Red-FLuc cells). The series is described as follows: Anti-cancer effect in orthotopic mice model of lung cancer (bioluminescence imaging). To be noted: pulmonary delivery, 0.3 mg/kg, four doses; control increased ∼6-fold; n = 5. In kind it is in vivo, BALB/c nu/nu mice. As to the method:
An orthotopic lung tumor-bearing mice model was established as previously reported. Briefly, the male BALB/c nu/nu mice (7–8 weeks) were anesthetized with 5% of chloral hydrate and 100 μL of A549-Red-FLuc cells (2 × 10^6 cells) solution in Matrigel (1:1). Experimental solutions were injected percutaneously into the right lateral thorax of each mouse using a 1 mL syringe with 29-gauge needle. On day seven after tumor cell inoculation, bioluminescence was measured using the IVIS Lumina XR system (Caliper, Hopking, MA) to check the successful establishment of lung cancer. D-luciferin substrate (i.p., 150 mg/kg in 0.9% saline solution) was injected 15 min before bioluminescence imaging. On day 19 after tumor cell inoculation, the mice were sacrificed and lungs were immediately resected.
On day seven following tumor cells inoculation, the orthothopic lung tumor-bearing mice (n = 30) were grouped into six treatment groups based on equivalent signal intensity of the tumor bioluminescence: Free TPL, TPL-lip, CA IX-TPL-lip, CPP33-TPL-lip, dl-TPL-lip, and control group with saline. […] Tumor growth was monitored weekly by bioluminescence imaging as before, during, and after the TPL treatment. Body weight of the mice was recorded weekly during the course of the study. […]
The TPL pharmacokinetic parameters in mice after endotracheal administration were calculated and summarized by DAS 2.1.1. […]

The nature of series [3]: Pharmacokinetics study after pulmonary (endotracheal) administration to rats. On the set-up: species or system Sprague Dawley rats. Conditions: rat, in vivo, 0.5 mg/kg. As to the method: Sprague–Dawley (SD) rats were divided randomly into five groups (n = four per group). Rats were fasted for 12 h before the experiment, but allowed water ad libitum. Free TPL, TPL-lip, CPP33-TPL-lip, CA IX-TPL-lip, and dl-TPL-lip were administered directly via pulmonary delivery using a Microsprayer Aerosolizer Pulmonary Aerosol Kit for Mouse Model PAK-MSA (Penn-Century, Inc. Wyndmoor, PA19038, USA) at a dose of 0.5 mg/kg. Blood samples (0.4 mL) were obtained before dosing and at designated time points (0.083, 0.5, 1, 2, 4, 6, 8, 12 h). The samples were collected into heparinized tube from the suborbital veins and were centrifuged for 10 min at 4,000 rpm. The plasma was analyzed by Agilent 1290 Ultra High Performance Liquid Chromatograph with Agilent 6460 Triple Quadrupole Mass Spectrometer system (UHPLC-QQQ MS/MS, Santa Clara, USA) (Xue et al., [2012]; Zhuang et al., [2013]).
The TPL pharmacokinetic parameters in […] after endotracheal administration were calculated and summarized by DAS 2.1.1. Statistical analyses for anti-cancer effect study were evaluated by two-way ANOVA with Bonferroni posttests using GraphPad Prism 6 (GraphPad Software, Inc, La Jolla, USA). […]
44 Analytical method for pharmacokinetics study
45 Hydrocortisone was added (50 μL, 200 ng/mL) as an internal standard (IS) to 0.2
46 mL of plasma. The samples were mixed, and extracted with ethyl acetate (750 μL)
47 followed by vortexing for 4min and centrifuging for 10min at 8000 rpm. The upper
48 organic phase was carefully transferred and e vaporated to dryness in vacuum. The
49 residues were dissolved in 100μL methanol and centrifuged at 4000rpm for 10 min,
50 then the supernatant was collected and injected into the Agilent 1290 Ultra High
51 Performance Liquid Chromatograph with Agilent 6460 Triple Quadrupole Mass
52 Spectrometer system (UHPLC-QQQ MS/MS).
53 Chromatography conditions: Waters Acquity BEH C18 (2.1×50 mm); Mobile phase
54 0.1% formic acid in water: 0.1% formic acid in acetonitrile =80:20 v/v; Flow rate 0.35
55 mL/min; Running time 10 min.
56 Mass spectrometer conditions: Ion Source Agilent Jet Stream electro spray
57 ionization (AJS ESI); Positive mode; Gas Temperature 300 °C; Gas flow rate 8 L/min;
58 Nebulizer 40 psi; SheathGasHeater 350°C; SheathGasFlow 8 L/min; Capillary 3500
60 Firstly, optimization of mass spectrometry was initiated by automatic tuning of the
61 instrument (Figure S1). Method validation was conducted before the sample analysis.
62 The specificity of the established method was assessed by comparing the
63 chromatograms of blank plasma, blank plasma with TPL, blank plasma with IS, and
64 plasma after endotracheal administration (Figure S2). The calibration curve in rat
65 plasma was linear over the ranges 10-2500 ng/mL in rat plasma (y=0.375035x +
67 accuracy and precision both intra-day and inter-day were less than 10%. The method
68 was sufficiently accurate and consistent for proceeding for the biological analysis of
69 TPL (Table S1). Therefore, the established method was applied to the analysis of rat

On the set-up of series [4]: method as in Chen et al., [2012a]; Reno et al., [2015]; Li et al., [2016]. To be noted: ref Chen et al., [2012a]; Reno et al., [2015]; Li et al., [2016]; cited from earlier work.
Setting [5] is: Sprague-Dawley, inhaled or intranasal, endotracheal administration, plasma TPL, n = 4.

In brackets after ≈: the same amount, converted by molar mass.

`CC(C)[C@]12O[C@H]1[C@@H]1O[C@]13[C@]1(O[C@H]1C[C@H]1C4=C(CC[C@@]13C)C(=O)OC4)[C@@H]2O` [Free TPL, Triptolide]: the TPL release profile result in series [1] is given as “rapid release profile”. The “Increase of tumors (bioluminescence) on day 31” value in series [2] is about 3 fold. In series [3] (setting [5]), the AUC(0-inf) stood at 225 ± 63.8 ng·h/mL, the AUC(0-t) worked out at 186 ± 36.5 ng·h/mL, the highest level (Cmax) was 188 ± 42.7 ng/mL and the time of peak concentration (Tmax) is 4.98 min. In series [3], the “Cmax of TPL in blood compared to liposomal TPL” value is “three-fold higher” and the t1/2 is given as 2.98 ± 0.54 H. Besides, the Solubility in water in series [4] is 17 µg/mL (≈ 47.2 µM).

The AUC(0-inf) is the area under the concentration-time curve extrapolated to infinity. Broadly, the AUC(0-t) is exposure summed from dosing to a finite time, without extrapolation to infinity. A high value points to high exposure. For orientation: Cmax means the peak of the concentration-time curve. Usually Tmax stands for the time from dosing to the highest level.
